Test results reported in US8815829B2, “3′-azido purine nucleotide prodrugs for treatment of viral infections” (priority 2008, dated 2014).
pEC50, pIC50: −log10 of the molar value. Read-outs that look alike come from different tables or passages of the source.

Legend:
adenosine deaminase = test: Adenosine deaminase assay (deamination of nucleosides); format: in vitro ADME
Method: In order to determine if these 6-substituted compounds are converted to G analogs by the enzyme adenosine deaminase, a series of enzyme kinetics experiments were undertaken.
To determine the propensity for deamination of the APN nucleosides by adenosine deaminase, nucleoside compounds were incubated with the commercially available purified enzyme, and the reaction was followed spectrophotometrically. Reaction conditions were 50 mM potassium phosphate, pH 7.4, with 50 μM APN nucleoside in 0.5 mL at 25° C. Reaction time was 7 minutes with 0.002 units of enzyme and 120 minutes with 0.2 units of enzyme. (The unit definition of adenosine deaminase is one unit will deaminate 1.0 μmol of adenosine to inosine per minute at pH 7.5 at 25° C.) Deoxyadenosine was the positive control which was 59% deaminated under the given conditions in 7 minutes with 0.002 units of enzyme. Deoxyguanosine was the negative control. Optical density was measured at 265 nm or 285 nm. The difference in optical density between the beginning and the end of the experiment was divided by the extinction coefficient then multiplied by the volume of the reaction to determine the number of mols of substrate transformed into product. Mols of product were divided by mols of substrate equivalent to a 100% complete reaction then multiplied by 100 to obtain percent deamination. The limit of detection was 0.001 optical density units.

Vero cells = test: Cytotoxicity assay in Vero cells; format: cell-based
HCV Replicon RNA = test: HCV Replicon Assay (Huh 7 Clone B cells); format: cell-based; settings: tested at 10 μM, five days
Text: (§1) Agents Chemother. […] K., Otto, M. J., Schinazi, R. F. “Antiviral activities and cellular toxicities of modified 2′,3′-dideoxy-2′,3′-didehydrocytidine analogs” Antimicrob. Agents Chemother. 2002, 46, 3854-60. • ^cHSV-1 drug susceptibility assay was done as previously described in: Schinazi, R. F., Peters, J., Williams, C. C., Chance, D., Nahmias, A. J. “Effect of combinations of acyclovir with vidarabine or its 5′-monophosphate on herpes simplex virus in cell culture and in mice.” Antimicrob. Agents Chemother. 1982, 22, 499-507. • ^dHCV Replicon Assay^1: Huh 7 Clone B cells containing HCV Replicon RNA were seeded in a 96-well plate at 5000 cells/well, and the compounds were tested at 10 μM in triplicate immediately after seeding. Following five days incubation (37° C., 5% CO2), total cellular RNA was isolated by using versaGene RNA purification kit from Gentra. Replicon RNA and an internal control (TaqMan rRNA control reagents, Applied Biosystems) were amplified in a single step multiplex Real Time RT-PCR Assay. The antiviral effectiveness of the compounds was calculated by subtracting the threshold RT-PCR cycle of the test compound from the threshold RT-PCR cycle of the no-drug control (ΔCtHCV). A ΔCt of 3.3 equals a 1-log reduction (equal to 90% less starting material) in Replicon RNA levels. The cytotoxicity of the compounds was also calculated by using the ΔCt rRNA values. 77 (2′-Me-C) was used as the control. To determine EC90 and IC50 values^2, ΔCt: values were first converted into fraction of starting material^3 and then were used to calculate the % inhibition.

CEM cells = test: Cytotoxicity assay in CEM cells; format: cell-based, human
PBM cells [1] = test: Cytotoxicity assay in PBM cells; format: cell-based, human
HSV-1 = HSV-1 drug susceptibility assay; format: cell-based
Text: as §1

HBV = test: Anti-HBV assay (AD-38 cell line); format: cell-based; settings: Hepatitis B virus
Method: The anti-HBV activity of the compounds was determined by treating the AD-38 cell line carrying wild type HBV under the control of tetracycline (see Ladner S. K., Otto M. J., Barker C. S., Zaifert K., Wang G. H., Guo J. T., Seeger C. & King R. W. Antimicrob. Agents Chemother. 1997, 41, 1715-20). Removal of tetracycline from the medium [Tet (−)] results in the production of HBV. The levels of HBV in the culture supernatant fluids from cells treated with the compounds were compared with that of the untreated controls. Control cultures with tetracycline [Tet (+)] were also maintained to determine the basal levels of HBV expression.

HIV-1/LAI = test: Anti-HIV-1 assay in PBM cells; format: cell-based
Method: Stock solutions (20-40 mM) of the compounds were prepared in sterile DMSO and then diluted to the desired concentration in growth medium. Cells were infected with the prototype HIV-1LAI at a multiplicity of infection of 0.01. Virus obtained from the cell supernatant was quantified on day 6 after infection by a reverse transcriptase assay using (rA)n·(dT)12-18 as template-primer. […] The antiviral EC50 and EC90 were obtained from the concentration-response curve using the median effective method described previously (see Chou T.-C. & Talalay P. Adv. Enzyme Regul. 1984, 22, 27-55; Belen'kii M. S. & Schinazi R. F. Antiviral Res. 1994, 25, 1-11).

PBM cells [2] = settings: human, 4 h, 50 μM
HIV-2/pROD10 = test: HIV-2 drug susceptibility in PBM cells; format: cell-based; settings: Human immunodeficiency virus 2, PBMC
[3] = 50 μM nucleoside, pH 7.4, 25° C., 0.002 units enzyme
[4] = 50 μM nucleoside, pH 7.4, 25° C., 0.2 units enzyme
[5] = Table 5, read-out: Toxicity IC50 Vero
[6] = Human immunodeficiency virus 1, PBMC, PBM cells, read-out: HIV-1/LAI (PBM) EC50
[7] = Human immunodeficiency virus 1, PBMC, PBM cells, read-out: HIV-1/LAI (PBM) EC90
[8] = Chlorocebus sabaeus, Vero, read-out: Vero IC50

Row | SMILES | pEC50 (HBV) | EC90 (HBV) | pEC50 (HIV-1/LAI; [6]) | EC90 (HIV-1/LAI; [7]) | nucleotides detected (LC/MS) (PBM cells [2]) | species not detected (LC/MS) (PBM cells [2]) | pEC50 (HIV-2/pROD10) | EC90 (HIV-2/pROD10) | also measured
1 | Nc1ncnc2c1ncn2[C@H]1C[C@H](O)[C@@H](CO)O1 [2Õ-deoxy- adenosine, Deoxyadenosine, reference compound] | – | – | – | – | – | – | – | – | Deamination in 7 min (0.002 units Adenosine Deaminase) (adenosine deaminase; [3]): 59.30%; Deamination in 7 min (0.002 units Adenosine Deaminase) (adenosine deaminase; 50 μM nucleoside, pH 7.4, 25° C., 0.002 units enzyme, listed as Deoxyadenosine): 59%; Deamination in 120 min (0.2 units Adenosine Deaminase) (adenosine deaminase; [4]): 105.50%
2 | Nc1nc(O)c2ncn([C@H]3C[C@H](O)[C@@H](CO)O3)c2n1 [2Õ-deoxy- guanosine, Deoxyguanosine, reference compound] | – | – | – | – | – | – | – | – | Deamination in 7 min (0.002 units Adenosine Deaminase) (adenosine deaminase; [3]): below level of detection; Deamination in 120 min (0.2 units Adenosine Deaminase) (adenosine deaminase; [4]): below level of detection
3 | C[C@@]1(O)[C@H](O)[C@@H](CO)O[C@H]1n1ccc(N)nc1=O [2′-Me—C, reference compound] | – | – | – | – | – | – | – | – | pIC50 (Vero cells; [5]): < 4.00; pEC50 (HCV Replicon RNA): 5.89; EC90 (HCV Replicon RNA): 5.4 µM; pIC50 (CEM cells; Table 5, read-out: Toxicity IC50 CEM): 4.61; pIC50 (PBM cells [1]; Table 5, read-out: Toxicity IC50 PBM): 4.53
4 | Nc1nc2c(ncn2COCCO)c(=O)[nH]1 [ACV, reference compound] | – | – | – | – | – | – | – | – | pIC50 (Vero cells; [5]): < 4.00; pEC50 (HSV-1): 6.80; EC90 (HSV-1): 0.42 µM
5 | C=CCNc1nc(N)nc2c1ncn2[C@H]1CC(N=[N+]=[N-])[C@@H](CO)O1 (stereo partly drawn) [Compound 62, 2-Amino-9-(3′-azido-2′,3′-dideoxy-β-D-erythro-pentofuranosyl)-6-allylamino-9H-purine] | < 5.00 | > 10 µM | 6.30 | 4.3 µM | detection of RFS-457-DP and RFS-457-TP | No RFS-427, RFS-427-MP, RFS-427-DP, or RFS-427-TP were detected | 6.15 | 7.4 µM | Deamination in 120 min (0.2 units Adenosine Deaminase) (adenosine deaminase; 50 μM, pH 7.4): 7.60%
6 | C=CCN(C)c1nc(N)nc2c1ncn2[C@H]1CC(N=[N+]=[N-])[C@@H](CO)O1 (stereo partly drawn) [Compound 63, 2-Amino-9-(3′-azido-2′,3′-dideoxy-β-D-erythro-pentofuranosyl)-6-N-methylallylamino-9H-purine] | < 5.00 | > 10 µM | 6.40 | 1.5 µM | detection of RFS-457-TP | No RFS-464, RFS-464-MP, RFS-464-DP, or RFS-464-TP were detected | 5.62 | 6.1 µM | –
7 | [N-]=[N+]=NC1C[C@H](n2cnc3c(NCCCCCO)nc(N)nc32)O[C@@H]1CO (stereo partly drawn) [Compound 64, 2-Amino-9-(3′-azido-2′,3′-dideoxy-β-D-erythro-pentofuranosyl)-6-aminopentanol-9H-purine] | < 5.00 | > 10 µM | – | – | – | – | < 4.00 | > 100 µM | pEC50 (HIV-1/LAI; Human immunodeficiency virus 1, PBMC, read-out: HIV-1/LAI (PBM) EC50, PBM cells): 4.06; EC90 (HIV-1/LAI; Human immunodeficiency virus 1, PBMC, read-out: HIV-1/LAI (PBM) EC90, PBM cells): > 10 µM
8 | CC(C)(CO)Nc1nc(N)nc2c1ncn2[C@H]1CC(N=[N+]=[N-])[C@@H](CO)O1 (stereo partly drawn) [Compound 65, 2-Amino-9-(3′-azido-2′,3′-dideoxy-β-D-erythro-pentofuranosyl)-6-N-2-methyl-2-amino-propanol-9H-purine] | < 5.00 | > 10 µM | 4.28 | > 10 µM | – | – | < 4.00 | > 100 µM | –
9 | CC(CO)Nc1nc(N)nc2c1ncn2[C@H]1CC(N=[N+]=[N-])[C@@H](CO)O1 (stereo partly drawn) [Compound 67] | < 5.00 | > 10 µM | 4.22 | > 10 µM | – | – | 4.29 | > 100 µM | –
10 | CN(C)c1nc(N)nc2c1ncn2[C@H]1CC(N=[N+]=[N-])[C@@H](CO)O1 (stereo partly drawn) [Compound 69] | < 5.00 | > 10 µM | 6.68 | 1.05 µM | – | – | 5.60 | 5.9 µM | Conversion by / stability to adenosine deaminase (adenosine deaminase): stable to adenosine deaminase
11 | COc1nc(N)nc2c1ncn2[C@H]1CC(N=[N+]=[N-])[C@@H](CO)O1 (stereo partly drawn) [Compound 70] | – | – | – | – | detection of RFS-506-DP, RFS-457-DP, and RFS-457-TP | No RFS-506, RFS-506-MP, or RFS-506-TP were detected | – | – | Deamination in 7 min (0.002 units Adenosine Deaminase) (adenosine deaminase; 50 μM, pH 7.4): 0.55 ± 5.8%; Deamination in 120 min (0.2 units Adenosine Deaminase) (adenosine deaminase; 50 μM, pH 7.4): 130.22 ± 4.72%
12 | [N-]=[N+]=NC1C[C@H](n2cnc3c(NC4CC4)nc(N)nc32)O[C@@H]1CO (stereo partly drawn) [Compound 72] | < 5.00 | > 10 µM | 5.82 | 8.8 µM | detection of RFS-457-DP and RFS-457-TP | No RFS-512, RFS-512-MP, RFS-512-DP, or RFS-512-TP were detected | 5.51 | 15.8 µM | Deamination in 7 min (0.002 units Adenosine Deaminase) (adenosine deaminase; 50 μM, pH 7.4): 0.56%; Deamination in 120 min (0.2 units Adenosine Deaminase) (adenosine deaminase; 50 μM, pH 7.4): 33.40%
13 | [N-]=[N+]=NC1C[C@H](n2cnc3c(N)nc(N)nc32)O[C@@H]1CO (stereo partly drawn) [Compound 73, β-D-3′-azido-2,6-diamino-2′,3′-dideoxypurine] | – | – | – | – | detection of RFS-457, RFS-457-MP, RFS-457-DP, RFS-457-TP RFS-667-DP, and RFS-667-TP | No RFS-667 or RFS-667-MP were detected | – | – | major metabolite (PBM cells [2]): RFS-457-TP as the major metabolite
14 | COCCNc1nc(N)nc2c1ncn2[C@H]1CC(N=[N+]=[N-])[C@@H](CO)O1 (stereo partly drawn) [Compound 74] | – | – | 5.68 | 16.2 µM | – | – | – | – | –
15 | CCOC(=O)[C@H](C)NP(=O)(OC[C@H]1O[C@@H](n2cnc3c(N)nc(N)nc32)CC1N=[N+]=[N-])Oc1ccccc1 (stereo partly drawn) [RS-783] | – | – | – | – | – | – | – | – | pIC50 (Vero cells; [8]): < 4.00; pIC50 (CEM cells; Tables 2-4, read-out: CEM IC50): 4.92; pIC50 (PBM cells [1]; Tables 2-4, read-out: PBM IC50): 5.02; pEC50 (HIV-1/LAI; Tables 2-4, n = 3 for the MP prodrugs, read-out: HIV EC50): 8.47; EC90 (HIV-1/LAI; Tables 2-4, n = 3 for the MP prodrugs, read-out: HIV EC90): 0.035 µM
16 | CCOC(=O)[C@H](C)NP(=O)(OC[C@H]1O[C@@H](n2cnc3c(Cl)nc(N)nc32)CC1N=[N+]=[N-])Oc1ccccc1 (stereo partly drawn) [RS-784] | – | – | – | – | – | – | – | – | pIC50 (Vero cells; [8]): < 4.00; pIC50 (CEM cells; Homo sapiens, CCRF-CEM, Tables 2-4, read-out: CEM IC50): 4.87; pIC50 (PBM cells [1]; Homo sapiens, PBMC, Tables 2-4, read-out: PBM IC50): 4.94; pEC50 (HIV-1/LAI; Human immunodeficiency virus 1, PBMC, Tables 2-4, n = 3 for the MP prodrugs, read-out: HIV EC50): 7.46; EC90 (HIV-1/LAI; Human immunodeficiency virus 1, PBMC, Tables 2-4, n = 3 for the MP prodrugs, read-out: HIV EC90): 0.1 µM
